Measurements published in the supplement of paper PMC9663587.

Tests used:
[1] = compound: T1, CC(=O)c1c(C)c2cnc(Nc3ccc(N4CCN(CCOCCOCCOCCNC(=O)COc5cccc6c5C(=O)N(C5CCC(=O)NC5=O)C6=O)CC4)cn3)nc2n(C2CCCC2)c1=O [BSJ-03-123]
[2] = compound: COc1ccc2c(c1)[C@]1(C[C@H]1c1ccc3c(/C=C/c4ccc(CN5C[C@@H](C)O[C@@H](C)C5)cc4)n[nH]c3c1)C(=O)N2
[3] = compound: T2, CN(C)C(=O)c1cc2cnc(Nc3ccc(N4CCNCC4)cn3)nc2n1C1CCCC1 [LEE011/Ribociclib]
[4] = compound: CN(C)C/C=C/C(=O)Nc1ccc(C(=O)N2CCC[C@@H](Nc3ncc(Cl)c(-c4c[nH]c5ccccc45)n3)C2)cc1 [THZ531]
[5] = compound: T1, BSJ-03-123; assay: GR value, 72 h; higher = faster growth (1 = untreated, <0 = killing);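 further: breast cancer and non-malignant breast epithelial lines, nine half-log doses, viable cells counted by Hoechst and LIVE/DEAD dye imaging versus time-zero plates and DMSO controls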
[6] = compound: C=CC(=O)Nc1ccc(C(=O)Nc2[nH]nc3c2CN(C(=O)N[C@H](CN(C)C)c2ccccc2)C3(C)C)cc1 [YKL-5-124]; assay: as above
[7] = compound: T2, LEE011/Ribociclib; assay: as above
[8] = compound: CC[C@@H]1C(=O)N(C)c2cnc(Nc3ccc(C(=O)N[C@H]4CC[C@H](N5CCN(CC6CC6)CC5)CC4)cc3OC)nc2N1C(C)C [Volasertib/BI6727]
[9] = compound: Cc1cc(Nc2ncc(Cl)c(Nc3ccccc3S(=O)(=O)C(C)C)n2)c(OC(C)C)cc1C1CCNCC1 [Ceritinib/LDK378]
[10] = compound: CC(C)n1nc(-c2ccc3oc(N)nc3c2)c2c(N)ncnc21 [INK128/MLN0128]
[11] = compound: T3, CCOc1cc2ncc(C#N)c(Nc3ccc(OCc4ccccn4)c(Cl)c3)c2cc1NC(=O)/C=C/CN(C)C [Neratinib/HKI272]
[12] = compound: O=C1NC(=O)[C@@H](c2cn3c4c(cccc24)CCC3)[C@@H]1c1c[nH]c2ccccc12 [Tivantinib/ARQ197]
[13] = compound: CC(=O)O[C@H]1C(=O)[C@@]2(C)[C@H]([C@H](OC(=O)c3ccccc3)[C@]3(O)C[C@H](OC(=O)[C@H](O)[C@@H](NC(=O)c4ccccc4)c4ccccc4)C(C)=C1C3(C)C)[C@]1(OC(C)=O)CO[C@@H]1C[C@@H]2O [Paclitaxel]
[14] = compound: CN(C)CC[C@H](CSc1ccccc1)Nc1ccc(S(=O)(=O)NC(=O)c2ccc(N3CCN(Cc4ccccc4-c4ccc(Cl)cc4)CC3)cc2)cc1[N+](=O)[O-] [ABT-737]
[15] = compound: Cc1nc(-c2cn3c(n2)-c2ccc(-c4cnn(C(C)(C)C(N)=O)c4)cc2OCC3)n(C(C)C)n1 [Taselisib/GDC0032]
[16] = compound: CS(=O)(=O)N1CCN(Cc2cc3nc(-c4cccc5[nH]ncc45)nc(N4CCOCC4)c3s2)CC1 [Pictilisib/GDC0941]
[17] = compound: CCN1CCN(Cc2ccc(Nc3ncc(F)c(-c4cc(F)c5nc(C)n(C(C)C)c5c4)n3)nc2)CC1
[18] = compound: T3, Neratinib/HKI272; assay: GR value, 72 h; higher = faster growth (1 = untreated, <0 = killing);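 further: breast cancer and non-malignant breast epithelial lines, nine half-log doses, viable cells counted by Hoechst and LIVE/DEAD dye imaging versus time-zero plates and DMSO controls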
[19] = compound: CCc1cnn2c(NCc3ccc[n+]([O-])c3)cc(N3CCCC[C@H]3CCO)nc12; assay: as above
[20] = compound: CCN1CCN(Cc2ccc(Nc3ncc(F)c(-c4cc(F)c5nc(C)n(C(C)C)c5c4)n3)nc2)CC1; assay: as above
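Wherever GR50, 72 h is given: breast cancer and non-malignant breast epithelial cell lines, Deep Dye Drop or Dye Drop imaging, nine half-log doses, GR normalized to time-zero plates and DMSO-only controls.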

For MCF10A (GM), the “GR50, 72 h” value [1] was 2.21 µM, the “GR50, 72 h” value [2] was 0.00625 µM and the “GR50, 72 h” value [3] was over 10 µM. The “GR50, 72 h” value [4] was 0.428 µM, the GR value ([5]; 0.001 µM) was 0.904 GR and the GR value ([5]; 0.003162 µM) was 0.952 GR. It also gave a GR value ([5]; 0.01 µM) of 0.879 GR, a GR value ([5]; 0.03162 µM) of 0.859 GR and a GR value ([5]; 0.1 µM) of 0.884 GR. For the same cell line, the GR value ([5]; 0.3162 µM) was 0.795 GR, the GR value ([5]; 1 µM) was 0.658 GR and the GR value ([5]; 3.162 µM) was 0.549 GR. The GR value ([5]; 10 µM) was -0.17 GR, the GR value ([6]; 0.001 µM) was 0.327 GR and the GR value ([6]; 0.003162 µM) was 0.118 GR. For the same cell line, the GR value ([6]; 0.01 µM) was 0.0291 GR, the GR value ([6]; 0.03162 µM) was 0.0039 GR and the GR value ([6]; 0.1 µM) was 0.0039 GR. The GR value ([6]; 0.3162 µM) was -0.0162 GR, the GR value ([6]; 1 µM) was -0.0398 GR and the GR value ([6]; 3.162 µM) was -0.0468 GR. The GR value ([6]; 10 µM) was -0.141 GR, the GR value ([7]; 0.001 µM) was 0.925 GR and the GR value ([7]; 0.003162 µM) was 0.95 GR. The GR value ([7]; 0.01 µM) was 0.906 GR, the GR value ([7]; 0.03162 µM) was 0.892 GR and the GR value ([7]; 0.1 µM) was 0.859 GR. It also gave a GR value ([7]; 0.3162 µM) of 0.823 GR, a GR value ([7]; 1 µM) of 0.808 GR and a GR value ([7]; 3.162 µM) of 0.736 GR. For the same cell line, the GR value ([7]; 10 µM) was 0.525 GR.

For HCC1500, the “GR50, 72 h” value [8] was 0.0116 µM, the “GR50, 72 h” value [9] was 1.41 µM and the “GR50, 72 h” value [10] was 0.000784 µM. The “GR50, 72 h” value [11] was 0.785 µM, the “GR50, 72 h” value [12] was 0.115 µM and the “GR50, 72 h” value [13] was 0.00382 µM. The “GR50, 72 h” value [14] was 0.00851 µM, the “GR50, 72 h” value [15] was 1.88 µM and the “GR50, 72 h” value [16] was 2.26 µM. The “GR50, 72 h” value [17] was 0.479 µM, the GR value ([18]; 0.0003162 µM) was 1.03 GR and the GR value ([18]; 0.001 µM) was 1.13 GR. For the same cell line, the GR value ([18]; 0.003162 µM) was 1.01 GR, the GR value ([18]; 0.01 µM) was 1.02 GR and the GR value ([18]; 0.03162 µM) was 0.915 GR. It also gave a GR value ([18]; 0.1 µM) of 0.889 GR, a GR value ([18]; 0.3162 µM) of 0.793 GR and a GR value ([18]; 1 µM) of 0.416 GR. For the same cell line, the GR value ([18]; 3.162 µM) was -0.245 GR, the GR value ([19]; 0.0001 µM) was 1.07 GR and the GR value ([19]; 0.0003162 µM) was 0.975 GR. The GR value ([19]; 0.001 µM) was 1.06 GR, the GR value ([19]; 0.003162 µM) was 1.06 GR and the GR value ([19]; 0.01 µM) was 0.674 GR. For the same cell line, the GR value ([19]; 0.03162 µM) was -0.172 GR, the GR value ([19]; 0.1 µM) was -0.576 GR and the GR value ([19]; 0.3162 µM) was -0.534 GR. For the same cell line, the GR value ([19]; 1 µM) was -0.601 GR, the GR value ([20]; 0.001 µM) was 1.1 GR and the GR value ([20]; 0.003162 µM) was 0.961 GR. For the same cell line, the GR value ([20]; 0.01 µM) was 0.802 GR, the GR value ([20]; 0.03162 µM) was 0.592 GR and the GR value ([20]; 0.1 µM) was 0.533 GR. The GR value ([20]; 0.3162 µM) was 0.701 GR, the GR value ([20]; 1 µM) was 0.494 GR and the GR value ([20]; 3.162 µM) was 0.395 GR. For the same cell line, the GR value ([20]; 10 µM) was 0.195 GR.
